Results from PubChem BioAssay AID180 (DTP/NCI, 2004).
“And” between values parts separate entries of the source, which are not always exact repeats. Equal values may be shown once.

System: BDF1 mice, Adenocarcinoma 755 s.c., tumor weight T/C
Assay: NCI In Vivo Anticancer Drug Screen. Data for tumor model Adenocarcinoma 755 (subcutaneous) in B6D2F1 (BDF1) mice
Conditions: endpoint: mean tumor weight, higher = larger tumour
Summary of the method: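 Readout: T/C, i.e. treated-group measurement over vehicle-control measurement. Endpoint is survival or tumor size in tumor-bearing mice given compound.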

[1] = dose: 30.0 mg/kg/injection, schedule: Q01DX011 (ip), vehicle: carboxymethylcellulose (CMC)
[2] = dose: 60.0 mg/kg/injection, schedule: Q01DX011 (ip), vehicle: carboxymethylcellulose (CMC)
[3] = dose: 100.0 mg/kg/injection, schedule: Q01DX011 (ip), vehicle: saline
[4] = dose: 50.0 mg/kg/injection, schedule: Q01DX011 (ip), vehicle: saline

CC(=O)Nc1c(Cl)c(Cl)c2c(c1Cl)Cc1cc(Cl)ccc1-2
T/C (dose: 27.0 mg/kg/injection, schedule: Q01DX011 (ip), vehicle: acetone): 87 % of control | T/C (dose: 55.0 mg/kg/injection, schedule: Q01DX011 (ip), vehicle: acetone): 31 % of control | T/C (dose: 110.0 mg/kg/injection, schedule: Q01DX011 (ip), vehicle: other): 46 % of control | T/C (dose: 110.0 mg/kg/injection, schedule: Q01DX011 (ip), vehicle: saline): 31 % of control | T/C (dose: 225.0 mg/kg/injection, schedule: Q01DX011 (ip), vehicle: other): 32 % of control | T/C (dose: 225.0 mg/kg/injection, schedule: Q01DX011 (ip), vehicle: saline): 8 % of control | T/C (dose: 450.0 mg/kg/injection, schedule: Q01DX011 (ip), vehicle: other): 19 % of control

CCSCCC(N)C(=O)O (stereo not drawn)
T/C (dose: 13.13 mg/kg/injection, schedule: Q01DX011 (ip), vehicle: carboxymethylcellulose (CMC)): 171 % of control | T/C (dose: 18.0 mg/kg/injection, schedule: Q01DX011 (ip), vehicle: methylcellulose (MC)): 86 % of control | T/C (dose: 20.5 mg/kg/injection, schedule: Q01DX011 (ip), vehicle: carboxymethylcellulose (CMC)): 99 % of control | T/C (dose: 26.25 mg/kg/injection, schedule: Q01DX011 (ip), vehicle: carboxymethylcellulose (CMC)): 118 % of control | T/C (dose: 37.5 mg/kg/injection, schedule: Q01DX011 (ip), vehicle: methylcellulose (MC)): 107 % of control | T/C (dose: 52.5 mg/kg/injection, schedule: Q01DX011 (ip), vehicle: carboxymethylcellulose (CMC)): 121 % of control | T/C (dose: 56.5 mg/kg/injection, schedule: Q01DX011 (ip), vehicle: carboxymethylcellulose (CMC)): 46 % of control | T/C (dose: 82.0 mg/kg/injection, schedule: Q01DX011 (ip), vehicle: carboxymethylcellulose (CMC)): 65 % of control | T/C (dose: 90.4 mg/kg/injection, schedule: Q01DX011 (ip), vehicle: other): 156 % of control | T/C (dose: 105.0 mg/kg/injection, schedule: Q01DX011 (ip), vehicle: carboxymethylcellulose (CMC)): 93 % of control | T/C (dose: 113.0 mg/kg/injection, schedule: Q01DX011 (ip), vehicle: carboxymethylcellulose (CMC)): 38 % of control | T/C (dose: 113.0 mg/kg/injection, schedule: Q01DX011 (ip), vehicle: other): 109 % of control | T/C (dose: 150.66 mg/kg/injection, schedule: Q01DX011 (ip), vehicle: other): 37 % of control | T/C (dose: 226.0 mg/kg/injection, schedule: Q01DX011 (ip), vehicle: carboxymethylcellulose (CMC)): 84 % of control | T/C (dose: 226.0 mg/kg/injection, schedule: Q01DX011 (ip), vehicle: other): 49 % of control

CC/C(=C(\CC)c1ccc(OC)cc1)c1ccc(O)cc1
T/C (dose: 15.0 mg/kg/injection, schedule: Q01DX011 (sc), vehicle: steriod suspending solution): 68 % of control | T/C (dose: 30.0 mg/kg/injection, schedule: Q01DX011 (sc), vehicle: steriod suspending solution): 69 % of control | T/C (dose: 60.0 mg/kg/injection, schedule: Q01DX011 (sc), vehicle: steriod suspending solution): 40 % of control | T/C (dose: 120.0 mg/kg/injection, schedule: Q01DX011 (sc), vehicle: other): 37 % of control and 42 % of control | T/C (dose: 120.0 mg/kg/injection, schedule: Q01DX011 (sc), vehicle: steriod suspending solution): 26 % of control

NS(=O)(=O)c1nc2nc[nH]c(=O)c2[nH]1
T/C [1]: 113 % of control | T/C [2]: 163 % of control | T/C (dose: 120.0 mg/kg/injection, schedule: Q01DX011 (ip), vehicle: carboxymethylcellulose (CMC)): 104 % of control | T/C (dose: 240.0 mg/kg/injection, schedule: Q01DX011 (ip), vehicle: carboxymethylcellulose (CMC)): 113 % of control

O=C(C1C(c2ccccc2)N1Cc1ccccc1)C1C(c2ccccc2)N1Cc1ccccc1 (stereo not drawn)
T/C (dose: 25.0 mg/kg/injection, schedule: Q01DX011 (ip), vehicle: methylcellulose (MC)): 47 % of control | T/C (dose: 50.0 mg/kg/injection, schedule: Q01DX011 (ip), vehicle: methylcellulose (MC)): 77 % of control | T/C (dose: 100.0 mg/kg/injection, schedule: Q01DX011 (ip), vehicle: methylcellulose (MC)): 66 % of control

O=C(Nc1ncnc2nc[nH]c12)C(Cl)Cl
T/C [3]: 77 % of control

O=C1Cc2ccccc2C(=O)N1
T/C (dose: 7.5 mg/kg/injection, schedule: Q01DX011 (ip), vehicle: carboxymethylcellulose (CMC)): 79 % of control | T/C (dose: 15.0 mg/kg/injection, schedule: Q01DX011 (ip), vehicle: carboxymethylcellulose (CMC)): 104 % of control | T/C [1]: 107 % of control | T/C [2]: 56 % of control

Nc1nc(N)c2[nH]cnc2n1
T/C (dose: 17.49 mg/kg/injection, schedule: Q01DX011 (ip), vehicle: carboxymethylcellulose (CMC)): 94 % of control | T/C (dose: 17.62 mg/kg/injection, schedule: Q01DX011 (ip), vehicle: carboxymethylcellulose (CMC)): 114 % of control | T/C (dose: 34.98 mg/kg/injection, schedule: Q01DX011 (ip), vehicle: carboxymethylcellulose (CMC)): 93 % of control | T/C (dose: 35.25 mg/kg/injection, schedule: Q01DX011 (ip), vehicle: carboxymethylcellulose (CMC)): 91 % of control | T/C (dose: 69.95 mg/kg/injection, schedule: Q01DX011 (ip), vehicle: carboxymethylcellulose (CMC)): 103 % of control | T/C (dose: 70.5 mg/kg/injection, schedule: Q01DX011 (ip), vehicle: carboxymethylcellulose (CMC)): 108 % of control | T/C (dose: 141.0 mg/kg/injection, schedule: Q01DX011 (ip), vehicle: carboxymethylcellulose (CMC)): 47 % of control

O=C1NC(=O)C(c2ccc(Cl)cc2)(c2ccccc2Cl)N1 (stereo not drawn)
T/C [4]: 91 % of control | T/C [3]: 82 % of control | T/C (dose: 125.0 mg/kg/injection, schedule: Q01DX011 (ip), vehicle: carboxymethylcellulose (CMC)): 81 % of control | T/C (dose: 200.0 mg/kg/injection, schedule: Q01DX011 (ip), vehicle: saline): 58 % of control and 77 % of control | T/C (dose: 250.0 mg/kg/injection, schedule: Q01DX011 (ip), vehicle: carboxymethylcellulose (CMC)): 28 % of control | T/C (dose: 400.0 mg/kg/injection, schedule: Q01DX011 (ip), vehicle: other): 71 % of control | T/C (dose: 500.0 mg/kg/injection, schedule: Q01DX011 (ip), vehicle: carboxymethylcellulose (CMC)): 81 % of control | T/C (dose: 800.0 mg/kg/injection, schedule: Q01DX011 (ip), vehicle: other): 30 % of control | T/C (dose: 800.0 mg/kg/injection, schedule: Q01DX011 (ip), vehicle: saline): 76 % of control | T/C (dose: 1600.0 mg/kg/injection, schedule: Q01DX011 (ip), vehicle: saline): 107 % of control

Cn1cnc([N+](=O)[O-])c1Sc1nc(N)nc2c1ncn2C1OC(CO)C(O)C1O (stereo not drawn)
T/C (dose: 0.03 mg/kg/injection, schedule: Q01DX011 (ip), vehicle: methylcellulose (MC)): 89 % of control | T/C (dose: 0.06 mg/kg/injection, schedule: Q01DX011 (ip), vehicle: methylcellulose (MC)): 76 % of control | T/C (dose: 0.11 mg/kg/injection, schedule: Q01DX011 (ip), vehicle: methylcellulose (MC)): 14 % of control | T/C (dose: 0.22 mg/kg/injection, schedule: Q01DX011 (ip), vehicle: methylcellulose (MC)): 1 % of control and 2 % of control | T/C (dose: 0.44 mg/kg/injection, schedule: Q01DX011 (ip), vehicle: methylcellulose (MC)): 2 % of control | T/C (dose: 0.88 mg/kg/injection, schedule: Q01DX011 (ip), vehicle: methylcellulose (MC)): 1 % of control | T/C (dose: 1.75 mg/kg/injection, schedule: Q01DX011 (ip), vehicle: methylcellulose (MC)): 2 % of control

CNC(=O)NO
T/C (dose: 50.0 mg/kg/injection, schedule: Q01DX011 (ip), vehicle: water): 65 % of control | T/C (dose: 100.0 mg/kg/injection, schedule: Q01DX011 (ip), vehicle: water): 43 % of control

COc1cc(-c2ccc(Nc3ccccc3C(=O)O)c(OC)c2)ccc1Nc1ccccc1C(=O)O
T/C (dose: 25.0 mg/kg/injection, schedule: Q01DX011 (ip), vehicle: saline): 75 % of control | T/C [4]: 28 % of control | T/C [3]: 5 % of control
